Results published in US5137913A, “Diaryl ether cyclic ethers” (Imperial Chemical Industries PLC, priority 1989, dated 1992).

Assays:
[1] = system: 5-LO (LTB4) in heparinised human blood; assay: In vitro heparinised human blood challenged with A23187, LTB4 radioimmunoassay (test b); format: cell-based
Experimental: b) An in vitro assay system involving incubating a test compound with heparinised human blood, prior to challenge with the calcium ionophore A23187 and then indirectly measuring the inhibitory effects on 5-LO by assaying the amount of LTB4 using the specific radioimmunoassay described by Carey and Forder (F. Carey and R. A. Forder, Brit. J. Pharmacol. 1985, 84, 34P) which involves the use of a protein-LTB4 conjugate produced using the procedure of Young et alia (Prostaglandins, 1983, 26(4), 605-613). The effects of a test compound on the enzyme cyclooxygenase (which is involved in the alternative metabolic pathway for arachidonic acid and gives rise to prostaglandins, thromboxanes and related metabolites) may be measured at the same time using the specific radioimmunoassay for thromboxane B2 (TxB2) described by Carey and Forder (see above). This test provides an indication of the effects of a test compound against 5-LO and also cyclooxygenase in the presence of blood cells and proteins. It permits the selectivity of the inhibitory effect on 5-LO or cyclooxygenase to be assessed.

[2] = system: 5-LO (LTB4); assay: Ex vivo assay: administration of compound, blood collection, challenge with A23187, LTB4 radioimmunoassay (test c); format: in vivo; conditions: oral
Experimental: c) An ex vivo assay system, which is a variation of test b) above, involving administration of a test compound (usually orally as the suspension produced when a solution of the test compound in dimethylsulphoxide is added to carboxymethylcellulose), blood collection, heparinisation, challenge with A23187 and radioimmunoassay of LTB4 and TxB2. This test provides an indication of the bioavailability of a test compound as an inhibitor of 5-LO or cyclooxygenase.

## CCC1(c2cccc(Sc3ccc4ccccc4c3)c2)COC(C)(C)O1 (centres unmarked) [Example 1, 4-ethyl-2,2-dimethyl-4-[3-(naphth-2-ylthio)phenyl]-1,3-dioxolane]
[1]
  IC50: 0.5 µM
[2]
  ED50: 3 mg/kg
